Tested on: undifferentiated hESCs
Assay: Cardiac induction of undifferentiated hESCs in defined culture by NAM (marker immunostaining, beating cardiomyocytes)
Format: cell-based, human
Source text: (b) Cardiac fate switch direct of the pluripotent state of hESCs induced by nicotinamide. NAM-induced Oct-4-negative cells began to express the cardiac specific transcription factor (Csx) Nkx2.5 (green) and alpha-actinin (red), consistent with early cardiac differentiation. […] All cells are indicated by DAPI staining of their nuclei (blue). Insets at the top better visualize individual cells at higher-magnification.
(Stage 1—Human Cardiomesodermal Cells) (FIGS. 1; 2a, b). Increased intensity of Nkx2.5 was usually observed in areas of the colonies where cells began to pile up (FIG. 2b). These differentiating hESCs then formed cardioblasts that uniformly expressed Nkx2.5 in suspension (Stage 2—Human Cardiac Precursor Cells) (FIGS. 1; 3a). […] (FIGS. 1, 3b). Cells within the beating cardiospheres expressed markers characteristic of cardiomyocytes (FIG. 3b). The cardiomyocytes can retain their strong contractility for over 3 months. Electrical profiles of the cardiomyocytes confirmed their contractions to be strong rhythmic impulses reminiscent of the p-QRS-T-complexes seen from body surface electrodes in clinical electrocardiograms (FIG. 3c). Cardiac specific transcription factor (Csx) Nkx2.5 is an evolutionally conserved homeobox transcription factor indispensable for normal cardiac development. The onset and pattern of early Nkx2.5 expression roughly coincide with the timing and area of cardiac specification, and Nkx2.5 gene continues to be expressed through development in the heart. Expression of Nkx2.5 is the earliest marker for heart precursor cells in all vertebrates so far examined and is essential for proper cardiac septation and formation/maturation of electrical conduction system.

Structure (SMILES): NC(=O)c1cccnc1 [NAM, nicotinamide]
- expression of cardiac-specific transcription factor Csx/Nkx2.5 (NAM 10 mM, defined culture): began expressing the earliest marker for heart precursor, Csx/Nkx2.5
- expression of pluripotence-associated markers (e.g., Oct-4) (NAM 10 mM, defined culture, all the cells within the colony): down-regulated the expression of pluripotence-associated markers
- appearance of beating cardiomyocytes (cardioblasts attached, further NAM treatment, after withdrawal of NAM, vs untreated control): drastic increase in efficiency

From patent US20160115446A1, “Technologies, Methods, and Products of Small Molecule Directed Tissue and Organ Regeneration from Human Pluripotent Stem Cells” (SAN DIEGO REGENERATIVE MEDICINE INSTITUTE, priority 2014, published 2016)
